Reference: PMC5336394 (Structure (London, England : 1993), 2017)

System: CypA
Test: HA peptide isomerization
Format: biochemical
Conditions: Pro2 of the HA peptide

**Q.** With YPTDVPDYA [HA] as the sequence, how does the “isomerization at Pro2” value read?
**A.** Its value is “not isomerized by CypA”.
